In patent US8030443B2, “Squamous cell carcinoma antigen-derived peptide binding to HLA-A24 molecule” (Kurume University, priority 2005, dated 2011):

Tested on: peptide-specific IgG in sera of cancer patients and healthy donors
Test: Measurement of anti-peptide IgG in plasma by LUMINEX multiplexed flow cytometric assay
Assay type: binding, human
Settings: for Total: healthy donors with significant peptide-reactive IgG / donors tested: 10 healthy donors; for Total: healthy donors with significant peptide-reactive IgG / donors tested / Total: cancer patients with significant peptide-reactive IgG / patients tested: significant when fluorescence intensity exceeded 100 at 1/100 dilution; for Total: cancer patients with significant peptide-reactive IgG / patients tested: 71 cancer patients
Method in brief: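 Plasma diluted 1/100 incubated with peptide-coupled colour-coded beads 2 h at RT, then biotinylated goat anti-human IgG (γ-chain) 1 h and streptavidin-PE 30 min; fluorescence read by multiplexed flow cytometry, >100 counted significant. Specificity checked by three rounds of absorption on corresponding versus irrelevant SCCA peptide.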

[1] = serum of Breast Ca. patient #36, 1:100 dilution
[2] = serum of Breast Ca. patient #37, 1:100 dilution
[3] = serum of Breast Ca. patient #38, 1:100 dilution
[4] = serum of Breast Ca. patient #39, 1:100 dilution
[5] = serum of Breast Ca. patient #40, 1:100 dilution
[6] = serum of Breast Ca. patient #41, 1:100 dilution
[7] = serum of Breast Ca. patient #42, 1:100 dilution
[8] = serum of Breast Ca. patient #43, 1:100 dilution
[9] = serum of Breast Ca. patient #44, 1:100 dilution
[10] = serum of Breast Ca. patient #45, 1:100 dilution
[11] = serum of Colon Ca. patient #66, 1:100 dilution
[12] = serum of Colon Ca. patient #67, 1:100 dilution
[13] = serum of Colon Ca. patient #68, 1:100 dilution
[14] = serum of Colon Ca. patient #69, 1:100 dilution
[15] = serum of Colon Ca. patient #70, 1:100 dilution
[16] = serum of Colon Ca. patient #71, 1:100 dilution
[17] = serum of Gastric Ca. patient #56, 1:100 dilution
[18] = serum of Gastric Ca. patient #57, 1:100 dilution
[19] = serum of Gastric Ca. patient #58, 1:100 dilution
[20] = serum of Gastric Ca. patient #59, 1:100 dilution
[21] = serum of Gastric Ca. patient #60, 1:100 dilution
[22] = serum of Gastric Ca. patient #61, 1:100 dilution
[23] = serum of Gastric Ca. patient #62, 1:100 dilution
[24] = serum of Gastric Ca. patient #63, 1:100 dilution
[25] = serum of Gastric Ca. patient #64, 1:100 dilution
[26] = serum of Gastric Ca. patient #65, 1:100 dilution
[27] = serum of Healthy Donor #1, 1:100 dilution
[28] = serum of Healthy Donor #2, 1:100 dilution
[29] = serum of Healthy Donor #3, 1:100 dilution
[30] = serum of Healthy Donor #4, 1:100 dilution
[31] = serum of Healthy Donor #5, 1:100 dilution
[32] = serum of Healthy Donor #6, 1:100 dilution
[33] = serum of Healthy Donor #7, 1:100 dilution
[34] = serum of Healthy Donor #8, 1:100 dilution
[35] = serum of Healthy Donor #9, 1:100 dilution
[36] = serum of Healthy Donor #10, 1:100 dilution
[37] = serum of Pancreas Ca. patient #46, 1:100 dilution
[38] = serum of Pancreas Ca. patient #47, 1:100 dilution
[39] = serum of Pancreas Ca. patient #48, 1:100 dilution
[40] = serum of Pancreas Ca. patient #49, 1:100 dilution
[41] = serum of Pancreas Ca. patient #50, 1:100 dilution
[42] = serum of Pancreas Ca. patient #51, 1:100 dilution
[43] = serum of Pancreas Ca. patient #52, 1:100 dilution
[44] = serum of Pancreas Ca. patient #53, 1:100 dilution
[45] = serum of Pancreas Ca. patient #54, 1:100 dilution
[46] = serum of Pancreas Ca. patient #55, 1:100 dilution
[47] = serum of Uterine cervical Ca. patient #1, 1:100 dilution
[48] = serum of Uterine cervical Ca. patient #2, 1:100 dilution
[49] = serum of Uterine cervical Ca. patient #3, 1:100 dilution
[50] = serum of Uterine cervical Ca. patient #4, 1:100 dilution
[51] = serum of Uterine cervical Ca. patient #5, 1:100 dilution
[52] = serum of Uterine cervical Ca. patient #6, 1:100 dilution
[53] = serum of Uterine cervical Ca. patient #7, 1:100 dilution
[54] = serum of Uterine cervical Ca. patient #8, 1:100 dilution
[55] = serum of Uterine cervical Ca. patient #9, 1:100 dilution
[56] = serum of Uterine cervical Ca. patient #10, 1:100 dilution
[57] = serum of Uterine cervical Ca. patient #11, 1:100 dilution
[58] = serum of Uterine cervical Ca. patient #12, 1:100 dilution
[59] = serum of Uterine cervical Ca. patient #13, 1:100 dilution
[60] = serum of Uterine cervical Ca. patient #14, 1:100 dilution
[61] = serum of Uterine cervical Ca. patient #15, 1:100 dilution
[62] = serum of Uterine cervical Ca. patient #16, 1:100 dilution
[63] = serum of Uterine cervical Ca. patient #17, 1:100 dilution
[64] = serum of Uterine cervical Ca. patient #18, 1:100 dilution
[65] = serum of Uterine cervical Ca. patient #19, 1:100 dilution
[66] = serum of Uterine cervical Ca. patient #20, 1:100 dilution
[67] = serum of Uterine cervical Ca. patient #21, 1:100 dilution
[68] = serum of Uterine cervical Ca. patient #22, 1:100 dilution
[69] = serum of Uterine cervical Ca. patient #23, 1:100 dilution
[70] = serum of Uterine cervical Ca. patient #24, 1:100 dilution
[71] = serum of Uterine cervical Ca. patient #25, 1:100 dilution
[72] = serum of Uterine cervical Ca. patient #26, 1:100 dilution
[73] = serum of Uterine cervical Ca. patient #27, 1:100 dilution
[74] = serum of Uterine cervical Ca. patient #28, 1:100 dilution
[75] = serum of Uterine cervical Ca. patient #29, 1:100 dilution
[76] = serum of Uterine cervical Ca. patient #30, 1:100 dilution
[77] = serum of Uterine cervical Ca. patient #31, 1:100 dilution
[78] = serum of Uterine cervical Ca. patient #32, 1:100 dilution
[79] = serum of Uterine cervical Ca. patient #33, 1:100 dilution
[80] = serum of Uterine cervical Ca. patient #34, 1:100 dilution
[81] = serum of Uterine cervical Ca. patient #35, 1:100 dilution

Sequence: LFGEKTYLFL (SCCA 107-116 peptide) [SCCA-derived peptide, position 107-116]
- Total: healthy donors with significant peptide-reactive IgG / donors tested: 5/10
- Total: cancer patients with significant peptide-reactive IgG / patients tested: 27/71
- Specificity of IgG reactive to the peptide (absorption assay: corresponding vs irrelevant SCCA peptide-coated wells (FIG. 3)): confirmed by absorption assay
- Fluorescence intesity [1]: 211
- Fluorescence intesity [2]: 242
- Fluorescence intesity [3]: 146
- Fluorescence intesity [4]: 149
- Fluorescence intesity [5]: 146
- Fluorescence intesity [6]: 269
- Fluorescence intesity [7]: 219
- Fluorescence intesity [8]: 136
- Fluorescence intesity [9]: 146
- Fluorescence intesity [10]: 272
- Fluorescence intesity [11]: 40
- Fluorescence intesity [12]: 49
- Fluorescence intesity [13]: 0
- Fluorescence intesity [14]: 20
- Fluorescence intesity [15]: 91
- Fluorescence intesity [16]: 70
- Fluorescence intesity [17]: 38
- Fluorescence intesity [18]: 114
- Fluorescence intesity [19]: 133
- Fluorescence intesity [20]: 237
- Fluorescence intesity [21]: 24
- Fluorescence intesity [22]: 282
- Fluorescence intesity [23]: 37
- Fluorescence intesity [24]: 29
- Fluorescence intesity [25]: 67
- Fluorescence intesity [26]: 72
- Fluorescence intesity [27]: 53
- Fluorescence intesity [28]: 297
- Fluorescence intesity [29]: 67
- Fluorescence intesity [30]: 0
- Fluorescence intesity [31]: 331
- Fluorescence intesity [32]: 0
- Fluorescence intesity [33]: 0
- Fluorescence intesity [34]: 454
- Fluorescence intesity [35]: 246
- Fluorescence intesity [36]: 106
- Fluorescence intesity [37]: 0
- Fluorescence intesity [38]: 115
- Fluorescence intesity [39]: 431
- Fluorescence intesity [40]: 30
- Fluorescence intesity [41]: 29
- Fluorescence intesity [42]: 2
- Fluorescence intesity [43]: 286
- Fluorescence intesity [44]: 43
- Fluorescence intesity [45]: 126
- Fluorescence intesity [46]: 0
- Fluorescence intesity [47]: 20
- Fluorescence intesity [48]: 106
- Fluorescence intesity [49]: 51
- Fluorescence intesity [50]: 109
- Fluorescence intesity [51]: 55
- Fluorescence intesity [52]: 925
- Fluorescence intesity [53]: 15
- Fluorescence intesity [54]: 30
- Fluorescence intesity [55]: 84
- Fluorescence intesity [56]: 14
- Fluorescence intesity [57]: 25
- Fluorescence intesity [58]: 41
- Fluorescence intesity [59]: 33
- Fluorescence intesity [60]: 22
- Fluorescence intesity [61]: 134
- Fluorescence intesity [62]: 193
- Fluorescence intesity [63]: 65
- Fluorescence intesity [64]: 62
- Fluorescence intesity [65]: 70
- Fluorescence intesity [66]: 90
- Fluorescence intesity [67]: 25
- Fluorescence intesity [68]: 19
- Fluorescence intesity [69]: 75
- Fluorescence intesity [70]: 1457
- Fluorescence intesity [71]: 16
- Fluorescence intesity [72]: 147
- Fluorescence intesity [73]: 39
- Fluorescence intesity [74]: 196
- Fluorescence intesity [75]: 19
- Fluorescence intesity [76]: 41
- Fluorescence intesity [77]: 108
- Fluorescence intesity [78]: 19
- Fluorescence intesity [79]: 170
- Fluorescence intesity [80]: 16
- Fluorescence intesity [81]: 20

Sequence: QFQKLLTEF (SCCA 84-92 peptide) [SCCA-derived peptide, position 84-92]
- Total: healthy donors with significant peptide-reactive IgG / donors tested: 1/10
- Total: cancer patients with significant peptide-reactive IgG / patients tested: 14/71
- Fluorescence intesity [1]: 95
- Fluorescence intesity [2]: 0
- Fluorescence intesity [3]: 31
- Fluorescence intesity [4]: 34
- Fluorescence intesity [5]: 5
- Fluorescence intesity [6]: 182
- Fluorescence intesity [7]: 11
- Fluorescence intesity [8]: 26
- Fluorescence intesity [9]: 20
- Fluorescence intesity [10]: 39
- Fluorescence intesity [11]: 0
- Fluorescence intesity [12]: 47
- Fluorescence intesity [13]: 0
- Fluorescence intesity [14]: 0
- Fluorescence intesity [15]: 0
- Fluorescence intesity [16]: 8
- Fluorescence intesity [17]: 18
- Fluorescence intesity [18]: 7
- Fluorescence intesity [19]: 0
- Fluorescence intesity [20]: 118
- Fluorescence intesity [21]: 0
- Fluorescence intesity [22]: 102
- Fluorescence intesity [23]: 0
- Fluorescence intesity [24]: 0
- Fluorescence intesity [25]: 7
- Fluorescence intesity [26]: 0
- Fluorescence intesity [27]: 0
- Fluorescence intesity [28]: 79
- Fluorescence intesity [29]: 0
- Fluorescence intesity [30]: 0
- Fluorescence intesity [31]: 0
- Fluorescence intesity [32]: 0
- Fluorescence intesity [33]: 0
- Fluorescence intesity [34]: 332
- Fluorescence intesity [35]: 33
- Fluorescence intesity [36]: 0
- Fluorescence intesity [37]: 0
- Fluorescence intesity [38]: 3
- Fluorescence intesity [39]: 344
- Fluorescence intesity [40]: 0
- Fluorescence intesity [41]: 0
- Fluorescence intesity [42]: 0
- Fluorescence intesity [43]: 108
- Fluorescence intesity [44]: 0
- Fluorescence intesity [45]: 13
- Fluorescence intesity [46]: 0
- Fluorescence intesity [47]: 20
- Fluorescence intesity [48]: 2
- Fluorescence intesity [49]: 0
- Fluorescence intesity [50]: 29
- Fluorescence intesity [51]: 15
- Fluorescence intesity [52]: 922
- Fluorescence intesity [53]: 12
- Fluorescence intesity [54]: 28
- Fluorescence intesity [55]: 67
- Fluorescence intesity [56]: 15
- Fluorescence intesity [57]: 23
- Fluorescence intesity [58]: 35
- Fluorescence intesity [59]: 23
- Fluorescence intesity [60]: 20
- Fluorescence intesity [61]: 116
- Fluorescence intesity [62]: 182
- Fluorescence intesity [63]: 56
- Fluorescence intesity [64]: 49
- Fluorescence intesity [65]: 62
- Fluorescence intesity [66]: 106
- Fluorescence intesity [67]: 19
- Fluorescence intesity [68]: 20
- Fluorescence intesity [69]: 57
- Fluorescence intesity [70]: 1819
- Fluorescence intesity [71]: 17
- Fluorescence intesity [72]: 128
- Fluorescence intesity [73]: 28
- Fluorescence intesity [74]: 139
- Fluorescence intesity [75]: 14
- Fluorescence intesity [76]: 33
- Fluorescence intesity [77]: 108
- Fluorescence intesity [78]: 18
- Fluorescence intesity [79]: 141
- Fluorescence intesity [80]: 15
- Fluorescence intesity [81]: 18
